Reference: patent publication US8716303B2, “N-(hetero)aryl-pyrrolidine derivatives of pyrazol-4-yl-pyrrolo[2,3-d]pyrimidines and pyrrol-3-yl-pyrrolo[2,3-d]pyrimidines as janus kinase inhibitors” (Incyte Corporation, priority 2009, dated 2014)
Counter-ions that a name gives are not always drawn.

Tests used:
[1] = biological target: T1, human JAK1 (a.a. 837-1142) (Homo sapiens, UniProt P23458); test: In vitro JAK kinase assay (HTRF, phosphorylation of a biotinylated peptide), JAK1; type: biochemical
T1 construct: human JAK1 (a.a. 837-1142); His tag (N); made in house; host or cells: insect cells (baculovirus)
T1 sequence (P23458 849-1154): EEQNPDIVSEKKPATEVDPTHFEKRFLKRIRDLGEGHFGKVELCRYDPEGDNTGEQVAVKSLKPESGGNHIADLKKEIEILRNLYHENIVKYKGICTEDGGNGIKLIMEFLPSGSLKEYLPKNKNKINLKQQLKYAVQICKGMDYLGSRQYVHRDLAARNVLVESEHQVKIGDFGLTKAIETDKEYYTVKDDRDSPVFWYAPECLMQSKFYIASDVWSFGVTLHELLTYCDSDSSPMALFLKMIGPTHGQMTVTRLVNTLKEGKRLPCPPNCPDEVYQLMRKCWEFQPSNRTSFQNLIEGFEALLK
In short: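 His-tagged catalytic domains (JAK1 a.a. 837-1142, JAK2 a.a. 828-1132) from insect cells phosphorylate 500 nM biotinylated peptide in 50 mM Tris pH 7.8, 100 mM NaCl, 5 mM DTT; ATP at Km (90 μM JAK1, 30 μM JAK2) or 1 mM, as indicated. 1 h at RT; EDTA stop, HTRF readout; IC50s.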

[2] = biological target: T2, Jak2 (a.a. 828-1132) (Homo sapiens, UniProt O60674); test: In vitro JAK kinase assay (HTRF, phosphorylation of a biotinylated peptide), JAK2, reported as JAK2/JAK1 ratio; type: biochemical
T2 construct: Jak2 (a.a. 828-1132); His tag (N); made in house; host or cells: insect cells (baculovirus)
T2 sequence (O60674 828-1132): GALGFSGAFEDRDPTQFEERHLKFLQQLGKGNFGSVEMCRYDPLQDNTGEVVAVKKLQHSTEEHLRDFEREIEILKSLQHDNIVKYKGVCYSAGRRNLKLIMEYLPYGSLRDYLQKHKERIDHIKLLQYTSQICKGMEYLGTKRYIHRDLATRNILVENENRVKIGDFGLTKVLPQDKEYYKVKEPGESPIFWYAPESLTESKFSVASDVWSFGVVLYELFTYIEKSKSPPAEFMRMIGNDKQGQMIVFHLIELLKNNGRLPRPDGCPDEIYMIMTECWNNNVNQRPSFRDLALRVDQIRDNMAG

[3] = Assay Conditions Km (ATP 90 μM for Jak1)
[4] = Assay Conditions Km (ATP 90 μM for Jak1, 30 μM for Jak2)

CS(=O)(=O)c1nccc(N2CCC(C(CC#N)n3cc(-c4ncnc5[nH]ccc45)cn3)C2)n1 (single isomer, unassigned) [Example 25, 3-{1-[2-(methylsulfonyl)pyrimidin-4-yl]pyrrolidin-3-yl}-3-[4-(7H-pyrrolo[2,3-d]pyrimidin-4-yl)-1H-pyrazol-1-yl]propanenitrile]
IC50 ([1]; Assay Conditions 1 mM ATP): < 50 nM | JAK2/JAK1 IC50 ratio ([2]; Assay Conditions 1 mM ATP): 34

N#CCC(C1CCN(c2nc3c(O)cccc3o2)C1)n1cc(-c2ncnc3[nH]ccc23)cn1 (single isomer, unassigned) [Example 165, 3-[1-(4-hydroxy-1,3-benzoxazol-2-yl)pyrrolidin-3-yl]-3-[4-(7H-pyrrolo[2,3-d]pyrimidin-4-yl)-1H-pyrazol-1-yl]propanenitrile]
IC50 ([1]; Assay Conditions 1 mM ATP): < 50 nM | JAK2/JAK1 IC50 ratio ([2]; Assay Conditions 1 mM ATP): 7.1

N#CCC(C1CCN(c2ccc3c(n2)S(=O)(=O)CC3)C1)n1cc(-c2ncnc3[nH]ccc23)cn1 (single isomer, unassigned) [Example 30, 3-[1-(1,1-dioxido-2,3-dihydrothieno[2,3-b]pyridin-6-yl)pyrrolidin-3-yl]-3-[4-(7H-pyrrolo[2,3-d]pyrimidin-4-yl)-1H-pyrazol-1-yl]propanenitrile]
IC50 ([1]; Assay Conditions 1 mM ATP): < 50 nM | JAK2/JAK1 IC50 ratio ([2]; Assay Conditions 1 mM ATP): 14.5

N#CCC(C1CCN(c2ccccc2C#N)C1)n1cc(-c2ncnc3[nH]ccc23)cn1 (centres unmarked) [Example 52, 2-(3-{2-cyano-1-[4-(7H-pyrrolo[2,3-d]pyrimidin-4-yl)-1H-pyrazol-1-yl]ethyl}pyrrolidin-1-yl)benzonitrile trifluoroacetate salt]
IC50 ([1]; Assay Conditions 1 mM ATP): < 50 nM | JAK2/JAK1 IC50 ratio ([2]; Assay Conditions 1 mM ATP): 2

N#CCC(C1CCN(c2nc3cccc(OC(F)F)c3o2)C1)n1cc(-c2ncnc3[nH]ccc23)cn1 (single isomer, unassigned) [Example 164, 3-(4-(7H-pyrrolo[2,3-d]pyrimidin-4-yl)-1H-pyrazol-1-yl)-3-(1-(7-(difluoromethoxy)benzo[d]oxazol-2-yl)pyrrolidin-3-yl)propanenitrile]
IC50 ([1]; Assay Conditions 1 mM ATP): < 50 nM | JAK2/JAK1 IC50 ratio ([2]; Assay Conditions 1 mM ATP): 10.9

N#CC[C@@H]([C@H]1CCN(c2nc3c(cc2F)CCS3)C1)n1cc(-c2ncnc3[nH]ccc23)cn1 [Example 87, (3S)-3-[(3S)-1-(5-fluoro-2,3-dihydrothieno[2,3-b]pyridin-6-yl)pyrrolidin-3-yl]-3-[4-(7H-pyrrolo[2,3-d]pyrimidin-4-yl)-1H-pyrazol-1-yl]propanenitrile bis(trifluoroacetate)]
IC50 ([1]; Assay Conditions 1 mM ATP): < 50 nM | JAK2/JAK1 IC50 ratio ([2]; Assay Conditions 1 mM ATP): 8.1

N#CCC(C1CCN(c2ccc3cccc(Cl)c3n2)C1)n1cc(-c2ncnc3[nH]ccc23)cn1 (racemic) [Example 42, ±3-[1-(8-chloroquinolin-2-yl)pyrrolidin-3-yl]-3-[4-(7H-pyrrolo[2,3-d]pyrimidin-4-yl)-1H-pyrazol-1-yl]propanenitrile]
IC50 [1, 3]: < 50 nM | JAK2/JAK1 IC50 ratio [2, 4]: 6.0

N#CCC(C1CCN(c2ccc3c(n2)SCC3)C1)n1cc(-c2ncnc3[nH]ccc23)cn1 (single isomer, unassigned) [Example 29, 3-[1-(2,3-dihydrothieno[2,3-b]pyridin-6-yl)pyrrolidin-3-yl]-3-[4-(7H-pyrrolo[2,3-d]pyrimidin-4-yl)-1H-pyrazol-1-yl]propanenitrile]
IC50 ([1]; Assay Conditions 1 mM ATP): < 50 nM | JAK2/JAK1 IC50 ratio ([2]; Assay Conditions 1 mM ATP): 12

N#CC[C@@H]([C@H]1CCN(c2scc(Cl)c2C#N)C1)n1cc(-c2ncnc3[nH]ccc23)cn1 [Example 78, 4-chloro-2-((3S)-3-{(1S)-2-cyano-1-[4-(7H-pyrrolo[2,3-d]pyrimidin-4-yl)-1H-pyrazol-1-yl]ethyl}pyrrolidin-1-yl)thiophene-3-carbonitrile]
IC50 ([1]; Assay Conditions 1 mM ATP): < 50 nM | JAK2/JAK1 IC50 ratio ([2]; Assay Conditions 1 mM ATP): 32.1

N#CCC(C1CCN(c2nc3ccccc3o2)C1)n1cc(-c2ncnc3[nH]ccc23)cn1 (single isomer, unassigned) [9, Step 3b]
IC50 [1, 3]: < 50 nM | JAK2/JAK1 IC50 ratio [2, 4]: 6.3

N#CCC(C1CCN(c2nc3cccc(C#N)c3o2)C1)n1cc(-c2ncnc3[nH]ccc23)cn1 (single isomer, unassigned) [Example 160, 2-(3-{2-cyano-1-[4-(7H-pyrrolo[2,3-d]pyrimidin-4-yl)-1H-pyrazol-1-yl]ethyl}pyrrolidin-1-yl)-1,3-benzoxazole-7-carbonitrile]
IC50 ([1]; Assay Conditions 1 mM ATP): < 50 nM | JAK2/JAK1 IC50 ratio ([2]; Assay Conditions 1 mM ATP): >11.4

N#CCC(C1CCN(c2ccnc(S)n2)C1)n1cc(-c2ncnc3[nH]ccc23)cn1 (single isomer, unassigned) [Example 150, 3-[1-(2-mercaptopyrimidin-4-yl)pyrrolidin-3-yl]-3-[4-(7H-pyrrolo[2,3-d]pyrimidin-4-yl)-1H-pyrazol-1-yl]propanenitrile]
IC50 ([1]; Assay Conditions 1 mM ATP): < 50 nM | JAK2/JAK1 IC50 ratio ([2]; Assay Conditions 1 mM ATP): 3.2

N#CCC(C1CCN(c2nc3cc(Cl)ccc3o2)C1)n1cc(-c2ncnc3[nH]ccc23)cn1 (single isomer, unassigned) [Example 10, 3-[1-(5-chloro-1,3-benzoxazol-2-yl)pyrrolidin-3-yl]-3-[4-(7H-pyrrolo[2,3-d]pyrimidin-4-yl)-1H-pyrazol-1-yl]propanenitrile]
IC50 [1, 3]: < 50 nM | JAK2/JAK1 IC50 ratio [2, 4]: 1.9

N#CCC(C1CCN(c2ccc3ccsc3n2)C1)n1cc(-c2ncnc3[nH]ccc23)cn1 (single isomer, unassigned) [Example 156, 3-[4-(7H-pyrrolo[2,3-d]pyrimidin-4-yl)-1H-pyrazol-1-yl]-3-(1-thieno[2,3-b]pyridin-6-ylpyrrolidin-3-yl)propanenitrile]
IC50 ([1]; Assay Conditions 1 mM ATP): < 50 nM | JAK2/JAK1 IC50 ratio ([2]; Assay Conditions 1 mM ATP): 8.0

N#CCC(C1CCN(c2ccc3c(n2)S(=O)(=O)CC3)C1)n1ccc(-c2ncnc3[nH]ccc23)c1 (single isomer, unassigned) [34, enantiomer 1]
IC50 ([1]; Assay Conditions 1 mM ATP): < 50 nM | JAK2/JAK1 IC50 ratio ([2]; Assay Conditions 1 mM ATP): 5.6

N#CC[C@@H]([C@H]1CCN(c2nccc(C(F)F)c2C#N)C1)n1cc(-c2ncnc3[nH]ccc23)cn1 [Example 103, 2-((3S)-3-{(1S)-2-cyano-1-[4-(7H-pyrrolo[2,3-d]pyrimidin-4-yl)-1H-pyrazol-1-yl]ethyl}pyrrolidin-1-yl)-4-(difluoromethyl)nicotinonitrile bis(trifluoroacetate)]
IC50 ([1]; Assay Conditions 1 mM ATP): < 50 nM | JAK2/JAK1 IC50 ratio ([2]; Assay Conditions 1 mM ATP): 22.8

CC(O)c1cnc(N2CC[C@H]([C@H](CC#N)n3cc(-c4ncnc5[nH]ccc45)cn3)C2)c(C#N)n1 (stereo partly drawn) [Example 146, 3-((3S)-3-{(1S)-2-cyano-1-[4-(7H-pyrrolo[2,3-d]pyrimidin-4-yl)-1H-pyrazol-1-yl]ethyl}pyrrolidin-1-yl)-6-(1-hydroxyethyl)pyrazine-2-carbonitrile trifluoroacetate]
IC50 ([1]; Assay Conditions 1 mM ATP): < 50 nM | JAK2/JAK1 IC50 ratio ([2]; Assay Conditions 1 mM ATP): >4.8

N#CC[C@@H]([C@H]1CCN(c2ncc3ncsc3n2)C1)n1cc(-c2ncnc3[nH]ccc23)cn1 [Example 102, (3S)-3-[4-(7H-pyrrolo[2,3-d]pyrimidin-4-yl)-1H-pyrazol-1-yl]-3-[(3S)-1-[1,3]thiazolo[5,4-d]pyrimidin-5-ylpyrrolidin-3-yl]propanenitrile bis(trifluoroacetate)]
IC50 ([1]; Assay Conditions 1 mM ATP): < 50 nM | JAK2/JAK1 IC50 ratio ([2]; Assay Conditions 1 mM ATP): 12.8

FCC([C@@H]1CCN(c2nc3cccnc3o2)C1)n1cc(-c2ncnc3[nH]ccc23)cn1 (stereo partly drawn) [71 (3R- enantiomer), 2-((3R)-3-{2-fluoro-1-[4-(7H-pyrrolo[2,3-d]pyrimidin-4-yl)-1H-pyrazol-1-yl]ethyl}pyrrolidin-1-yl) [1,3]oxazolo[5,4-b]pyridine phosphoric acid salt]
IC50 ([1]; Assay Conditions 1 mM ATP): < 50 nM | JAK2/JAK1 IC50 ratio ([2]; Assay Conditions 1 mM ATP): 5.9

N#CC[C@@H]([C@H]1CCN(c2nccnc2C#N)C1)n1cc(-c2ncnc3[nH]ccc23)cn1 [Example 51, 3-((3S)-3-{(1S)-2-cyano-1-[4-(7H-pyrrolo[2,3-d]pyrimidin-4-yl)-1H-pyrazol-1-yl]ethyl}pyrrolidin-1-yl)pyrazine-2-carbonitrile trifluoroacetate]
IC50 ([1]; Assay Conditions 1 mM ATP): < 50 nM | JAK2/JAK1 IC50 ratio ([2]; Assay Conditions 1 mM ATP): 6.8

N#CC[C@@H]([C@H]1CCN(c2cccc(C(F)(F)F)c2C#N)C1)n1cc(-c2ncnc3[nH]ccc23)cn1 [Example 56, 2-((3S)-3-{(1S)-2-cyano-1-[4-(7H-pyrrolo[2,3-d]pyrimidin-4-yl)-1H-pyrazol-1-yl]ethyl}pyrrolidin-1-yl)-6-(trifluoromethyl)benzonitrile trifluoroacetate salt]
IC50 ([1]; Assay Conditions 1 mM ATP): < 50 nM | JAK2/JAK1 IC50 ratio ([2]; Assay Conditions 1 mM ATP): >10

N#CC[C@@H]([C@H]1CCN(c2ncc3sccc3c2C#N)C1)n1cc(-c2ncnc3[nH]ccc23)cn1 [Example 74, 5-((3S)-3-{(1S)-2-cyano-1-[4-(7H-pyrrolo[2,3-d]pyrimidin-4-yl)-1H-pyrazol-1-yl]ethyl}pyrrolidin-1-yl)thieno[2,3-c]pyridine-4-carbonitrile]
IC50 ([1]; Assay Conditions 1 mM ATP): < 50 nM | JAK2/JAK1 IC50 ratio ([2]; Assay Conditions 1 mM ATP): 6.2

N#CCC(C1CCN(c2ncc3cccc(F)c3n2)C1)n1cc(-c2ncnc3[nH]ccc23)cn1 (centres unmarked) [Example 46, 3-[1-(8-fluoroquinazolin-2-yl)pyrrolidin-3-yl]-3-[4-(7H-pyrrolo[2,3-d]pyrimidin-4-yl)-1H-pyrazol-1-yl]propanenitrile]
IC50 ([1]; Assay Conditions 1 mM ATP): < 50 nM | JAK2/JAK1 IC50 ratio ([2]; Assay Conditions 1 mM ATP): 3.7

N#CCC(C1CCN(c2ccnc(C(=O)Nc3ccccc3)c2)C1)n1cc(-c2ncnc3[nH]ccc23)cn1 (single isomer, unassigned) [Example 154, 4-(3-{2-cyano-1-[4-(7H-pyrrolo[2,3-d]pyrimidin-4-yl)-1H-pyrazol-1-yl]ethyl}pyrrolidin-1-yl)-N-phenylpyridine-2-carboxamide]
IC50 ([1]; Assay Conditions 1 mM ATP): < 50 nM | JAK2/JAK1 IC50 ratio ([2]; Assay Conditions 1 mM ATP): >11.8

N#CCC(C1CCN(c2nc3ccccc3o2)C1)n1cc(-c2ncnc3[nH]ccc23)cn1 (single isomer, unassigned) [9, Step 3a]
IC50 [1, 3]: < 50 nM | JAK2/JAK1 IC50 ratio [2, 4]: 1.9
